{"source": "PubChem BioAssay AID2060883", "about": "(Molecular Pharmacology Branch, DTP, NCI, 2025);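 further: viability read after seven days of compound exposure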", "test_system": "843782-103-R-J1-PDC complex spheroid viability", "assay": "Anticancer human tumor 843782-103-R-J1-PDC patient-derived lung adenocarcinoma cell line growth inhibition [RAS]", "conditions": "for viability, T/C: stronger effect = lower value", "how_it_was_run": "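Multi-cell-type spheroids: tumor cells plus HUVEC endothelial cells and mesenchymal stem cells. RAS-pathway inhibitors were combined with targeted agents, each dosed in half-log steps down from clinical Cmax, or from 10 microM when Cmax was unknown.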", "data": [{"smiles": "CC1(O)CCCC1n1c(=O)c(C(F)F)cc2cnc(NC3CCN(S(C)(=O)=O)CC3)nc21", "note": "(stereo not given) + C=CC(=O)N1CCN(c2nc(OCC3CCCN3C)nc3c(F)c(-c4nc(N)cc(C)c4C(F)(F)F)c(Cl)cc23)C(C)C1", "values": [{"measurement": "IC50", "setting": "curve of first compound, second compound 0.00316 µM", "value": 147, "unit": "nM"}, {"measurement": "IC50", "setting": "curve of first compound, second compound 0.01 µM", "value": 152, "unit": "nM"}, {"measurement": "IC50", "setting": "curve of first compound, second compound 0.0316 µM", "value": 96.4, "unit": "nM"}, {"measurement": "IC50", "setting": "curve of first compound, second compound 0.1 µM", "value": 126, "unit": "nM"}, {"measurement": "IC50", "setting": "curve of first compound, second compound 0.316 µM", "value": 140, "unit": "nM"}, {"measurement": "IC50", "setting": "curve of first compound, second compound 1 µM", "value": 138, "unit": "nM"}, {"measurement": "viability, T/C", "setting": "second compound 0.00316 µM, first compound 0.0316 µM", "value": 84.9, "unit": "%"}, {"measurement": "viability, T/C", "setting": "second compound 0.00316 µM, first compound 0.1 µM", "value": 61.6, "unit": "%"}, {"measurement": "viability, T/C", "setting": "second compound 0.00316 µM, first compound 0.316 µM", "value": 27.7, "unit": "%"}, {"measurement": "viability, T/C", "setting": "second compound 0.00316 µM, first compound 1 µM", "value": 24.3, "unit": "%"}, {"measurement": "viability, T/C", "setting": "second compound 0.00316 µM, first compound 3.16 µM", "value": 24.2, "unit": "%"}, {"measurement": "viability, T/C", "setting": "second compound 0.00316 µM, first compound 10 µM", "value": 2.56, "unit": "%"}, {"measurement": "viability, T/C", "setting": "second compound 0.01 µM, first compound 0.0316 µM", "value": 81.2, "unit": "%"}, {"measurement": "viability, T/C", "setting": "second compound 0.01 µM, first compound 0.1 µM", "value": 61.4, "unit": "%"}, {"measurement": "viability, T/C", "setting": "second compound 0.01 µM, first compound 0.316 µM", "value": 28.2, "unit": "%"}, {"measurement": "viability, T/C", "setting": "second compound 0.01 µM, first compound 1 µM", "value": 29.2, "unit": "%"}, {"measurement": "viability, T/C", "setting": "second compound 0.01 µM, first compound 3.16 µM", "value": 21.7, "unit": "%"}, {"measurement": "viability, T/C", "setting": "second compound 0.01 µM, first compound 10 µM", "value": 3.18, "unit": "%"}, {"measurement": "viability, T/C", "setting": "second compound 0.0316 µM, first compound 0.0316 µM", "value": 75.9, "unit": "%"}, {"measurement": "viability, T/C", "setting": "second compound 0.0316 µM, first compound 0.1 µM", "value": 49.9, "unit": "%"}, {"measurement": "viability, T/C", "setting": "second compound 0.0316 µM, first compound 0.316 µM", "value": 24, "unit": "%"}, {"measurement": "viability, T/C", "setting": "second compound 0.0316 µM, first compound 1 µM", "value": 27.5, "unit": "%"}, {"measurement": "viability, T/C", "setting": "second compound 0.0316 µM, first compound 3.16 µM", "value": 19.6, "unit": "%"}, {"measurement": "viability, T/C", "setting": "second compound 0.0316 µM, first compound 10 µM", "value": 2.81, "unit": "%"}, {"measurement": "viability, T/C", "setting": "second compound 0.1 µM, first compound 0.0316 µM", "value": 78.7, "unit": "%"}, {"measurement": "viability, T/C", "setting": "second compound 0.1 µM, first compound 0.1 µM", "value": 59.2, "unit": "%"}, {"measurement": "viability, T/C", "setting": "second compound 0.1 µM, first compound 0.316 µM", "value": 24.4, "unit": "%"}, {"measurement": "viability, T/C", "setting": "second compound 0.1 µM, first compound 1 µM", "value": 27.2, "unit": "%"}, {"measurement": "viability, T/C", "setting": "second compound 0.1 µM, first compound 3.16 µM", "value": 23, "unit": "%"}, {"measurement": "viability, T/C", "setting": "second compound 0.1 µM, first compound 10 µM", "value": 2.61, "unit": "%"}, {"measurement": "viability, T/C", "setting": "second compound 0.316 µM, first compound 0.0316 µM", "value": 86, "unit": "%"}, {"measurement": "viability, T/C", "setting": "second compound 0.316 µM, first compound 0.1 µM", "value": 58.8, "unit": "%"}, {"measurement": "viability, T/C", "setting": "second compound 0.316 µM, first compound 0.316 µM", "value": 26.2, "unit": "%"}, {"measurement": "viability, T/C", "setting": "second compound 0.316 µM, first compound 1 µM", "value": 28.5, "unit": "%"}, {"measurement": "viability, T/C", "setting": "second compound 0.316 µM, first compound 3.16 µM", "value": 25.2, "unit": "%"}, {"measurement": "viability, T/C", "setting": "second compound 0.316 µM, first compound 10 µM", "value": 2.69, "unit": "%"}, {"measurement": "viability, T/C", "setting": "second compound 1 µM, first compound 0.0316 µM", "value": 84.1, "unit": "%"}, {"measurement": "viability, T/C", "setting": "second compound 1 µM, first compound 0.1 µM", "value": 54.1, "unit": "%"}, {"measurement": "viability, T/C", "setting": "second compound 1 µM, first compound 0.316 µM", "value": 33.1, "unit": "%"}, {"measurement": "viability, T/C", "setting": "second compound 1 µM, first compound 1 µM", "value": 25.1, "unit": "%"}, {"measurement": "viability, T/C", "setting": "second compound 1 µM, first compound 3.16 µM", "value": 17.2, "unit": "%"}, {"measurement": "viability, T/C", "setting": "second compound 1 µM, first compound 10 µM", "value": 2.07, "unit": "%"}]}, {"smiles": "C=CC(=O)N1CCN(c2nc(OCC3CCCN3C)nc3c(F)c(-c4nc(N)cc(C)c4C(F)(F)F)c(Cl)cc23)C(C)C1", "note": "(stereo not given)", "values": [{"measurement": "viability, T/C", "setting": "compound 0.00316 µM", "value": "89.6% [middle of 12 runs]"}, {"measurement": "viability, T/C", "setting": "compound 0.0316 µM", "value": "86.8% [middle of 12 runs]"}, {"measurement": "viability, T/C", "setting": "compound 0.316 µM", "value": "85.5% [middle of 12 runs]"}, {"measurement": "viability, T/C", "setting": "compound 1 µM", "value": "86% [middle of 12 runs]"}, {"measurement": "IC50", "setting": "compound alone, run of 09/09/2024", "value": "> 1000", "unit": "nM"}, {"measurement": "IC50", "setting": "curve of compound", "value": "> 1000", "unit": "nM"}]}, {"smiles": "NC1c2ccccc2OC12CCN(c1cnc3c(N4CCCc5ncccc54)n[nH]c3n1)CC2", "note": "(stereo not given) + CCn1c(-c2cc(N3CCN(C)CC3)cnc2C(C)OC)c2c3cc(ccc31)-c1csc(n1)CC(NC(=O)C1CC1C)C(=O)N1CCCC(N1)C(=O)OCC(C)(C)C2", "values": [{"measurement": "IC50", "setting": "curve of first compound, second compound 0.000949 µM", "value": "< 31.6", "unit": "nM"}, {"measurement": "IC50", "setting": "curve of first compound, second compound 0.003 µM", "value": "< 31.6", "unit": "nM"}, {"measurement": "IC50", "setting": "curve of first compound, second compound 0.00949 µM", "value": "< 31.6", "unit": "nM"}, {"measurement": "IC50", "setting": "curve of first compound, second compound 0.03 µM", "value": "< 31.6", "unit": "nM"}, {"measurement": "IC50", "setting": "curve of first compound, second compound 0.0949 µM", "value": "< 31.6", "unit": "nM"}, {"measurement": "IC50", "setting": "curve of first compound, second compound 0.3 µM", "value": "< 31.6", "unit": "nM"}, {"measurement": "viability, T/C", "setting": "second compound 0.000949 µM, first compound 0.0316 µM", "value": 39.3, "unit": "%"}, {"measurement": "viability, T/C", "setting": "second compound 0.000949 µM, first compound 0.1 µM", "value": 25.7, "unit": "%"}, {"measurement": "viability, T/C", "setting": "second compound 0.000949 µM, first compound 0.316 µM", "value": 20, "unit": "%"}, {"measurement": "viability, T/C", "setting": "second compound 0.000949 µM, first compound 1 µM", "value": 19.5, "unit": "%"}, {"measurement": "viability, T/C", "setting": "second compound 0.000949 µM, first compound 3.16 µM", "value": 16.9, "unit": "%"}, {"measurement": "viability, T/C", "setting": "second compound 0.000949 µM, first compound 10 µM", "value": 12.2, "unit": "%"}, {"measurement": "viability, T/C", "setting": "second compound 0.003 µM, first compound 0.0316 µM", "value": 27.1, "unit": "%"}, {"measurement": "viability, T/C", "setting": "second compound 0.003 µM, first compound 0.1 µM", "value": 19.2, "unit": "%"}, {"measurement": "viability, T/C", "setting": "second compound 0.003 µM, first compound 0.316 µM", "value": 17.9, "unit": "%"}, {"measurement": "viability, T/C", "setting": "second compound 0.003 µM, first compound 1 µM", "value": 16.2, "unit": "%"}, {"measurement": "viability, T/C", "setting": "second compound 0.003 µM, first compound 3.16 µM", "value": 13.6, "unit": "%"}, {"measurement": "viability, T/C", "setting": "second compound 0.003 µM, first compound 10 µM", "value": 10.3, "unit": "%"}, {"measurement": "viability, T/C", "setting": "second compound 0.00949 µM, first compound 0.0316 µM", "value": 24.2, "unit": "%"}, {"measurement": "viability, T/C", "setting": "second compound 0.00949 µM, first compound 0.1 µM", "value": 15.6, "unit": "%"}, {"measurement": "viability, T/C", "setting": "second compound 0.00949 µM, first compound 0.316 µM", "value": 17, "unit": "%"}, {"measurement": "viability, T/C", "setting": "second compound 0.00949 µM, first compound 1 µM", "value": 15, "unit": "%"}, {"measurement": "viability, T/C", "setting": "second compound 0.00949 µM, first compound 3.16 µM", "value": 12.8, "unit": "%"}, {"measurement": "viability, T/C", "setting": "second compound 0.00949 µM, first compound 10 µM", "value": 8.86, "unit": "%"}, {"measurement": "viability, T/C", "setting": "second compound 0.03 µM, first compound 0.0316 µM", "value": 16.8, "unit": "%"}, {"measurement": "viability, T/C", "setting": "second compound 0.03 µM, first compound 0.1 µM", "value": 14.8, "unit": "%"}, {"measurement": "viability, T/C", "setting": "second compound 0.03 µM, first compound 0.316 µM", "value": 12.6, "unit": "%"}, {"measurement": "viability, T/C", "setting": "second compound 0.03 µM, first compound 1 µM", "value": 12.7, "unit": "%"}, {"measurement": "viability, T/C", "setting": "second compound 0.03 µM, first compound 3.16 µM", "value": 14.2, "unit": "%"}, {"measurement": "viability, T/C", "setting": "second compound 0.03 µM, first compound 10 µM", "value": 9.33, "unit": "%"}, {"measurement": "viability, T/C", "setting": "second compound 0.0949 µM, first compound 0.0316 µM", "value": 18.1, "unit": "%"}, {"measurement": "viability, T/C", "setting": "second compound 0.0949 µM, first compound 0.1 µM", "value": 14, "unit": "%"}, {"measurement": "viability, T/C", "setting": "second compound 0.0949 µM, first compound 0.316 µM", "value": 15.2, "unit": "%"}, {"measurement": "viability, T/C", "setting": "second compound 0.0949 µM, first compound 1 µM", "value": 13.8, "unit": "%"}, {"measurement": "viability, T/C", "setting": "second compound 0.0949 µM, first compound 3.16 µM", "value": 12.2, "unit": "%"}, {"measurement": "viability, T/C", "setting": "second compound 0.0949 µM, first compound 10 µM", "value": 9.38, "unit": "%"}, {"measurement": "viability, T/C", "setting": "second compound 0.3 µM, first compound 0.0316 µM", "value": 13.6, "unit": "%"}, {"measurement": "viability, T/C", "setting": "second compound 0.3 µM, first compound 0.1 µM", "value": 13.6, "unit": "%"}, {"measurement": "viability, T/C", "setting": "second compound 0.3 µM, first compound 0.316 µM", "value": 13.6, "unit": "%"}, {"measurement": "viability, T/C", "setting": "second compound 0.3 µM, first compound 1 µM", "value": 12.8, "unit": "%"}, {"measurement": "viability, T/C", "setting": "second compound 0.3 µM, first compound 3.16 µM", "value": 11.7, "unit": "%"}, {"measurement": "viability, T/C", "setting": "second compound 0.3 µM, first compound 10 µM", "value": 7.8, "unit": "%"}]}]}
